{FL} = fluorescein region
Tests used:
Erk-1/2 = assay: Western blotting of Erk-1/2 activation upon EGF after oligonucleotide transfection; type: cell-based, human; conditions: old cells; 100 ng/ml EGF; FIG. 20
Protocol: Young cells (PDL less than 30), middle cells (PDL 35-45) and old cells (PDL more than 60) of Human fibroblasts or IMR-90 cells, respectively were stimulated with 100 ng/ml EGF (Gibco-BRL, human, recombinant). After stimulation, western blotting was performed as described in Example V. Monoclonal anti-phospho-Erk-1/2 antibody, polyclonal anti-Erk-1/2 antibody and polyclonal anti-EGFR antibody were purchased from Santa Cruz Biotechnology, Inc. As found in FIG. 13a, in both young and middle-aged cells, Erk-1/2 kinases were phosphorylated (activated) within 5 min, and the resulting activation was sustained for 15 min after EGF stimulation. However, the phosphorylation of Erk-1/2 kinase from old cells was not detected until 15 min had lapsed. The expression level of Erk kinase and EGFR was not changed by the increase of population doubling in Western blot (see FIG. 13b), despite the down-regulation of EGF signaling to Erk kinases.
The old and young fibroblasts were treated with antisense oligonucleotide as described in Example XVII. The EGF stimulation and western blotting were carried out as described in Example XI. FIG. 20 represents the results of this Example.

caveolin-1 [1] = assay: Immunostaining of caveolin-1 in old fibroblasts transfected with oligonucleotide; type: cell-based, human; conditions: old fibroblasts PDL 64; for expression of caveolin-1 in cell (immunostaining): with a lapse of treatment time, FIG. 19
Protocol: (§1) Old human fibroblasts (PDL 64) were placed onto 24 well-plate or dish containing DMEM without FBS and incubated in incubator (37° C., 5% CO2) for 12 hr. After incubation, 1-5 μg of 100 μM antisense oligonucleotides synthesized and Plus reagent (Gibco-BRL) were mixed with 500 μl of DMEM and subsequently reacted for 15 min. at room temperature, and the resulting mixture was well mixed with 500 μl of the mixture containing 12 μl of Lipofectamine (Gibco-BRL) and DMEM, followed by standing the mixture for 15 min. at room temperature in order to form liposome complex. The incubated cells were washed twice with DMEM (no serum) and treated with 1 ml of the liposome complex, followed by incubation for 3 hr at 37° C. To the transfected cells, 1-5 ml of DMEM containing 10% FBS was added and the incubation was subsequently carried out for 24 hr, after which the media was changed with DMEM containing 10% FBS. Following incubation for a given period, immunostaining and western blotting were carried out as follows:
The cells treated with antisense oligonucleotide were fixed with 0.5 ml of 4% paraformaldehyde for 20 min at room temperature and then permeabilized with 0.5 ml of 0.5% Triton X-100 in PBS for 10 min, followed by blocking with 2% BSA (in PBS). The cells were sequentially incubated with anti-caveolin-1 antibody (Transduction Laboratory) overnight at 4° C. and then rhodamine-conjugated secondary antibody (Santa Cruz) for 1 hr at room temperature. For the purpose of visualizing nucleus, DAPI (Molecular Probe) was also added. The observation was performed using confocal microscope (Biorad, #MRC1024).

p-Erk-1/2 = assay: Immunostaining of p-Erk-1/2 translocation to nucleus; type: cell-based, human; conditions: old cells; EGF; FIG. 22
Protocol: To verify that Erk-1/2 kinase activated in Example XVIII is translocated into nucleus and regulate sequentially the expression of other genes, immunostaining was performed as follows: Young and old fibroblasts were treated with antisense oligonucleotide and EGF as Example XIII. The treated cells were sequentially incubated with anti-p-Erk (phosphorylated-Erk) antibody (New England Biotech) overnight at 4° C. and then FITC-conjugated secondary antibody (Santa Cruz) for 1 hr at room temperature. For the purpose of visualizing nucleus, DAPI (Molecular Probe) was also added. The image of p-Erk-1/2 localization was visualized using confocal microscope (Biorad, #MRC1024), which is found in FIGS. 21 and 22. In FIGS. 21 and 22, arrows indicate translocation of p-Erk-1/2 kinase into nucleus.

caveolin-1 [2] = assay: Western blotting of caveolin-1 in cells treated with oligonucleotides; type: cell-based, human; conditions: old fibroblasts PDL 64
Protocol: Analysis of caveolin expression, in young cells (PDL less than 30), middle cells (PDL 35-45) and old cells (PDL more than 60) of Human fibroblasts or IMR-90 cells, was performed by Western blotting as described in Example V. Monoclonal anti-caveolin-1 antibody, monoclonal anti-caveolin-2 antibody and monoclonal anti-caveolin-3 antibody were purchased from Transduction Laboratories.
as §1, with “follows: […]” for “follows:”

human fibroblasts = assay: Senescence-associated β-galactosidase activity staining; type: cell-based; conditions: for β-galactosidase activity shown from (days after treatment), entry of cellular senescence: fibroblasts PDL 16, 400 μM
Protocol: The fibroblasts subcultured in Exmaple I-1, PDL of which are 16, were placed in culture plate and were kept to arrest cell cycle to G1 phase in incubator (37° C., 5% CO2 and humidified) for a week. The cell cycle arrest was confirmed as follows: Following the fixation of the cells with cold ethanol, the cells were stained for 30 min. at room temperature using PI staining solution (containing 50 μg/ml of Rnase A and 50 μg/ml of propinium iodide in PBS). Thereafter, using FACS (fluorescence-activated cell sorter), the cell cycle was confirmed by observing DNA phenotype, i.e., 2n or 4n.
The fibroblasts arrested in G1 phase were treated with 400 μM H2O2 and then incubated for 3 hrs., followed by washing with 10 ml of PBS. Then, the cells were subcultured at a 1:4 ratio and under normal conditions for cell culure (37° C., 5% CO2 and humidified), cell culture was continuously performed. Following 7 days after the treatment, the cells were determined in terms of senescence using senescence-associated […] activity staining as described in Example III.
The fibroblasts subcultured in Exmaple I-1, PDL of which are 16, were placed in culture plate containing DMEM and were cultured in incubator (37° C., 5% CO2 and humidified) for 14 hrs. Thereafter, the fibroblasts were treated with 400 μM Hydroxyurea and then incubated continuously. The medium was renewed once per 3 days with the addition of fresh 400 μM Hydroxyurea. Following 14 days after the treatment, the cells were determined in terms of senescence using senescence-associated […] activity staining as described in Example III.
A senescence-associated […] activity staining (hereinafter referred to as “SA β-gal activity staining) was performed according to the method of Dimri et al. (Dimri G P et al., Proc. Natl. Acad. Sci., 92:9363(1995)): The semiconfluent fibroblasts were washed twice with 10 ml of PBS and fixed with 2% paraformaldehyde in PBS for 5 min. at room temperature. […]

p16 = assay: Western blotting of young cells treated with demethylating agent; type: cell-based, human; conditions: young fibroblasts PDL 20; 1 μM; FIG. 23b
Protocol: (§2) The induction of cellular senescence was verified by SA β-gal activity staining as Example III. To investigate the expression of related proteins, the treated cells were harvested in different days and western blotting was performed as previously described. In western blotting, anti-p53 antibody, anti-p16 antibody, anti-caveolin-1 antibody and anti-actin antibody were purchased from Santa Cruz Biotechnology, Inc.

caveolin-1 [3] = assay: as above; type: cell-based, human; conditions: young fibroblasts PDL 20; 1 μM; FIG. 23b
Protocol: as §2

[4] = system: receptor-mediated endocytosis; assay: Internalization of rhodamine-conjugated transferrin in artificially induced senescent cells (confocal microscopy); type: cell-based, human; conditions: 25 μg/ml rhodamine-conjugated transferrin, FIG. 4

Compound | Erk-1/2 activation by EGF (Erk-1/2) | cell morphology (caveolin-1 [1]) | expression of caveolin-1 in cell (immunostaining) (caveolin-1 [1]) | p-Erk-1/2 in nucleus (p-Erk-1/2) | β-galactosidase activity shown from (days after treatment), entry of cellular senescence (human fibroblasts) | function of receptor-mediated endocytosis (internalization of fluorescent transferrin) [4] | also measured
5′-atgtctgggggc-3′ (sense ATGTCTGGGGGC; all phosphorothioate, 5' {FL}, sugars by position and methylation of C not given here) [sense oligonucleotide, sense oligonucleotide for the same region of caveolin-1 mRNA, control] | no alteration in Erk-1/2 activation | did not show such cell-morphology alteration | not changed | no p-Erk-1/2 in nucleus |  |  | 
5′-tttgcccccaga-3′ (antisense TTTGCCCCCAGA; all phosphorothioate, 5' {FL}, sugars by position and methylation of C not given here) [antisense oligonucleotide] | highly increased | enlarged and spread morphology to smaller and spindle morphology | dramatically decreased | vice versa |  |  | caveolin-1 band (western blotting) (caveolin-1 [2]): weaker band corresponding to caveolin-1
Nc1ncn([C@H]2C[C@H](O)[C@@H](CO)O2)c(=O)n1 [5-aza-deoxycytidine] |  |  |  |  |  |  | SA β-gal activity staining (induction of cellular senescence) (human fibroblasts; young fibroblasts PDL 20, 1 μM, treated for about 2 weeks, FIG. 23a): senescent cell-like phenomenon; expression of p16 (p16): increased; expression of caveolin-1 (caveolin-1 [3]): increased
OO [H2O2] |  |  |  |  | 10 days | reduced function of receptor-mediated endocytosis | 
NC(=O)NO [hydroxyurea, Hydroxyurea] |  |  |  |  | 14 to 20 days | reduced function of receptor-mediated endocytosis | 

— US20050261265A1, “MODULATING CELLULAR SENESCENCE BY AMPHIPHYSIN-1” (priority 2000, published 2005)
